Experimental data from US20240246992A1, “MACROCYCLIC LRRK2 KINASE INHIBITORS” (LES LABORATOIRES SERVIER, priority 2021, published 2024).

The compounds below were run against human recombinant LRRK2 protein (Homo sapiens, UniProt Q5S007) (assay: LRRK2 kinase activity assay (ADP-Glo, LRRKtide peptide)). Conditions: human recombinant LRRK2 wt, LRRKtide peptide and ATP, 1 h at 37° C.
Format: biochemical
Description: The inhibition of LRRK2 kinase was assessed using human recombinant LRRK2 protein in an in vitro peptide-based kinase assay.
LRRK2 Kinase reactions were carried out in 384-well white polystyrene plates in a final volume of 6 μl using ADP-Glo™ Kinase Assay kit (Promega Corp.). Compound and substrates (LRRKtide peptide and ATP) in assay buffer were first dispensed in wells. Kinase reaction was then started by the addition of human recombinant LRRK2 protein. After 1 h-incubation at 37° C., the enzymatic reactions was stopped by the addition of 6 μl of ADP-Glo Reagent-1 and an additional 40-minutes incubation at 23° C. (residual ATP depletion). A final 30-minutes incubation after 12 μL reagent-2 addition (ADP to ATP conversion and luciferin/luciferase reaction) was performed before luminescent signal acquisition (EnVision™ multimode plate reader—PerkinElmer, Inc.). Data from 10 individual concentrations of tested compounds (N=2) were fitted (XLfit™—ID Business Solutions Ltd) to deliver IC50s (compound concentration leading to 50% inhibition of reference enzymatic activity).
The compounds are dissolved to 5 mM in DMSO. When needed, solutions are sonicated in a bath sonicator.
Table 2 provides the pIC50 values of the compounds according to the invention, obtained using the above mentioned kinase assay. Activities are represented as +++, ++ and +, having the following meanings: • «+++» means an IC50<10 nM • «++» means an IC50<100 nM • «+» means an IC50<1 μM • «−» means an IC50>1 μM

Chain of human recombinant LRRK2 protein (Q5S007 whole entry): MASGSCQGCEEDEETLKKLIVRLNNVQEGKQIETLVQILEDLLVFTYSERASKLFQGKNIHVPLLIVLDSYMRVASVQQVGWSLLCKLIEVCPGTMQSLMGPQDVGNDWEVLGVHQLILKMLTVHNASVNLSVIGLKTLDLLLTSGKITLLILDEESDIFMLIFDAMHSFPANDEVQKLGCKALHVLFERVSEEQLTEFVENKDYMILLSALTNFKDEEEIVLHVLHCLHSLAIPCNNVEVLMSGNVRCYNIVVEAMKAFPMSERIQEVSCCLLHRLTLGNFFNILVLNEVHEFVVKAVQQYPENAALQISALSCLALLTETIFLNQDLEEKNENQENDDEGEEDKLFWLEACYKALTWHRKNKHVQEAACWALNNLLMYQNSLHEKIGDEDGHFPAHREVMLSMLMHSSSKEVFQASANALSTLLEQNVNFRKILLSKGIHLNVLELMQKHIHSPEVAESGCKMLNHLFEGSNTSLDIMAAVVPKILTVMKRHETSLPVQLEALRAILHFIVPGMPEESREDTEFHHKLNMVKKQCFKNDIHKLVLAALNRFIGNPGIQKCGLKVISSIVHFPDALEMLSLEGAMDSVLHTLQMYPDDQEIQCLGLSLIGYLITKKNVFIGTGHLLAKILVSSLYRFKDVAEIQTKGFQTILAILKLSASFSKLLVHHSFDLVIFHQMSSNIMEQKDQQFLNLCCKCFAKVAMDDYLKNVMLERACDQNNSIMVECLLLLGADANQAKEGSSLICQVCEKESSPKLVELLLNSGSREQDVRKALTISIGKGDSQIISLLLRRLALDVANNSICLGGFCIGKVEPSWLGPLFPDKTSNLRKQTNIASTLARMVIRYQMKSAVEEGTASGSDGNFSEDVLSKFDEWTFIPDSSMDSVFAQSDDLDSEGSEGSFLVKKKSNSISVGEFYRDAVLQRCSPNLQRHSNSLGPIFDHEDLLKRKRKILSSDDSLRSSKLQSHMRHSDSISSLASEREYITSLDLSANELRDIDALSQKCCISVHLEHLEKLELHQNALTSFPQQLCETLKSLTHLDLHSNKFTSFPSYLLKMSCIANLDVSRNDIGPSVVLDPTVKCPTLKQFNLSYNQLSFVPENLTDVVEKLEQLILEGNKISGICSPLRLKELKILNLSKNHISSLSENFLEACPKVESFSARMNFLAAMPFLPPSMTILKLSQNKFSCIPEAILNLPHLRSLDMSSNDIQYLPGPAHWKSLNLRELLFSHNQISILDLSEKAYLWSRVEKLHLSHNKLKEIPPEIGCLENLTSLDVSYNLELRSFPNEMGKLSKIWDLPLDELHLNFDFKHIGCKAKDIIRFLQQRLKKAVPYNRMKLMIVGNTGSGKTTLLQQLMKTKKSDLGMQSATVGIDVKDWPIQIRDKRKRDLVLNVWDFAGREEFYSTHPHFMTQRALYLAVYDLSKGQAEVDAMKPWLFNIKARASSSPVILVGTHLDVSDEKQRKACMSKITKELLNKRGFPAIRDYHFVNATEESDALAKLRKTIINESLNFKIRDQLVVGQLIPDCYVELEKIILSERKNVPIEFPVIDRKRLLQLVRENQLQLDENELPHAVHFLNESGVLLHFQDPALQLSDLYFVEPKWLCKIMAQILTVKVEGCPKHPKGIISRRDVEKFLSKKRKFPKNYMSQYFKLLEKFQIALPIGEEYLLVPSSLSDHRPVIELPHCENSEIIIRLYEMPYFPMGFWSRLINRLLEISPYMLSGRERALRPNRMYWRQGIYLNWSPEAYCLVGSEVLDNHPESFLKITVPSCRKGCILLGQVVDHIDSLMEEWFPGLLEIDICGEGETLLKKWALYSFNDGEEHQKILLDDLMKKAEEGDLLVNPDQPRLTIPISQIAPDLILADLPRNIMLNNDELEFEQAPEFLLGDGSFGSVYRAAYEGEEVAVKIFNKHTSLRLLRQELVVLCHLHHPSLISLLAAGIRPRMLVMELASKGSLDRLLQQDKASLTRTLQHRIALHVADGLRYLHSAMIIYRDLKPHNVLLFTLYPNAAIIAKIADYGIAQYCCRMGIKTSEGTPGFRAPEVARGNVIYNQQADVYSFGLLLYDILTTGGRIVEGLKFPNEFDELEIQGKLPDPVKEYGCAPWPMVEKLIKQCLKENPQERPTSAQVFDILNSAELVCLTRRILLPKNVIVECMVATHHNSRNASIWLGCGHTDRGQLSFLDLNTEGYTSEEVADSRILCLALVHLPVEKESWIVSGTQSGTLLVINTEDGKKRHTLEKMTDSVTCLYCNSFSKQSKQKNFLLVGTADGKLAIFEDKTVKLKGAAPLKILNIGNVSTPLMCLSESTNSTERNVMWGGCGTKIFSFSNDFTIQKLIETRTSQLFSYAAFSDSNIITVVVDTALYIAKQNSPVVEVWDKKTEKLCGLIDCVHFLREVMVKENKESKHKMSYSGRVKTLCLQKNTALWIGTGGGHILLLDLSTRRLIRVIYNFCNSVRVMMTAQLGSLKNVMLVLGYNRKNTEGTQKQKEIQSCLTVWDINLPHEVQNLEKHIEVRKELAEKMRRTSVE

IC50	Compound
< 10 nM	c1cc2cc(c1)-c1n[nH]c3ccc(cc13)OCCCNCCO2 [Example 135, 7,14-dioxa-10,19,20-triazatetracyclo[13.5.2.1^2,6.0^18,21]tricosa-1(20),2(23),3,5,15(22),16,18(21)-heptaene]
< 100 nM	CC1CCNC(=O)COc2cncc(c2)-c2n[nH]c3ccc(cc23)O1 (stereo not drawn) [Example 158, 13-methyl-7,14-dioxa-4,10,19,20-tetraazatetracyclo[13.5.2.1^2,6.0^18,21]tricosa-1(20),2,4,6(23),15,17,21-heptaen-9-one]
< 100 nM	C[C@H]1CCOCCOCc2nc(cn2C)-c2n[nH]c3ccc(cc23)O1 [Example 79, (13S)-4,13-dimethyl-7,10,14-trioxa-4,19,20,23-tetraazatetracyclo[13.5.2.1^2,5.0^18,21]tricosa-1(20),2,5(23),15(22),16,18(21)-hexaene]
< 100 nM	C[C@H]1NCCOc2cccc(c2)-c2n[nH]c3ccc(cc23)OC[C@@H]1F [Example 231, (11R,12R)-12-fluoro-11-methyl-7,14-dioxa-10,19,20-triazatetracyclo[13.5.2.1^2,6.0^18,21]tricosa-1(20),2,4,6(23),15(22),16,18(21)-heptaene]
< 10 nM	O=C1COc2cc(Cl)cc(c2)-c2n[nH]c3ccc(cc23)OCCCN1 [Example 142, 4-chloro-7,14-dioxa-10,19,20-triazatetracyclo[13.5.2.1^2,6.0^18,21]tricosa-1(20),2,4,6(23),15,17,21-heptaen-9-one]
< 100 nM	C[C@@H]1COCCOCCn2cc(cc2C#N)-c2n[nH]c3ccc(cc23)O1 [Example 82, (13R)-13-methyl-8,11,14-trioxa-5,19,20-triazatetracyclo[13.5.2.1^2,5.0^18,21] tricosa-1(20),2(23),3,15(22),16,18(21)-hexaene-4-carbonitrile]
< 100 nM	C[C@H]1COc2ccc3[nH]nc(c3c2)-c2cnn(c2)CCCOCCO1 [Example 129, (13S)-13-methyl-9,12,15-trioxa-4,5,20,21-tetraazatetracyclo[14.5.2.1^2,5.0^19,22]tetracosa-1(21),2(24),3,16(23),17,19(22)-hexaene]
< 10 nM	C[C@@H]1CCNC(=O)COc2cc(cc(N3CCOCC3)c2)-c2n[nH]c3ccc(cc23)O1 [Example 172, (13R)-13-methyl-4-(morpholin-4-yl)-7,14-dioxa-10,19,20-triazatetracyclo[13.5.2.1^2,6.0^18,21]tricosa-1(20),2(23),3,5,15,17,21-heptaen-9-one]
< 10 nM	O=C1CCc2cc(F)cc(c2)-c2n[nH]c3ccc(cc23)OCCCN1 [Example 219, 4-fluoro-14-oxa-10,19,20-triazatetracyclo[13.5.2.1^2,6.0^18,21]tricosa-1(20),2(23),3,5,15(22),16,18(21)-heptaen-9-one]
< 100 nM	O=C1COc2cc(ccc2F)-c2n[nH]c3ccc(cc23)OCCCN1 [Example 138, 5-fluoro-7,14-dioxa-10,19,20-triazatetracyclo[13.5.2.1^2,6.0^18,21]tricosa-1(20),2,4,6(23),15,17,21-heptaen-9-one]
< 10 nM	O=C1COc2cc(cc(N3CCN(CC4CC4)CC3)c2)-c2n[nH]c3ccc(cc23)OCCCN1 [Example 209, 4-[4-(cyclopropylmethyl)piperazin-1-yl]-7,14-dioxa-10,19,20-triazatetracyclo[13.5.2.1^2,6.0^18,21]tricosa-1(20),2(23),3,5,15,17,21-heptaen-9-one]
< 10 nM	O=C1COc2cc(cc(N3CCN(C4CC4)CC3)c2)-c2n[nH]c3ccc(cc23)OCCCN1 [Example 217, 4-(4-cyclopropylpiperazin-1-yl)-7,14-dioxa-10,19,20-triazatetracyclo[13.5.2.1^2,6.0^18,21]tricosa-1(20),2(23),3,5,15,17,21-heptaen-9-one]
< 10 nM	c1cc2[nH]nc3c2cc1OCCCCCOCCn1cc-3cn1 [Example 108, 8,14-dioxa-4,5,19,20-tetraazatetracyclo[13.5.2.1^2,5.0^18,21]tricosa-1(20),2(23), 3,15(22),16,18(21)-hexaene]
< 100 nM	C[C@H]1COc2cc3c(n[nH]c3cn2)-c2cnn(c2)CCOCCO1 [Example 246]
< 10 nM	Cc1ccc2cc1OCC(=O)NCCCOc1ccc3[nH]nc-2c3c1 [Example 140, 5-methyl-7,14-dioxa-10,19,20-triazatetracyclo[13.5.2.1^2,6.0^18,21] tricosa-1(20),2,4,6(23),15,17,21-heptaen-9-one]
< 10 nM	Cc1cc2nc(n1)OCCOCC[C@H](C)Nc1ccc3[nH]nc-2c3c1 [Example 40, (13S)-4,13-dimethyl-7,10-dioxa-5,14,19,20,23-pentaazatetracyclo[13.5.2.1^2,6.0^18,21]tricosa-1(20),2(23),3,5,15(22),16,18(21)-heptaene]
< 100 nM	CC1CN(C)CCCOc2ccc3[nH]nc(c3c2)-c2cncc(c2)O1 (stereo not drawn) [Example 161, 8,10-dimethyl-7,14-dioxa-4,10,19,20-tetraazatetracyclo [13.5.2.1^2,6.0^18,21]tricosa-1(20),2,4,6(23),15,17,21-heptaene]
< 10 nM	C[C@@H]1COCCOCCn2cc(cn2)-c2n[nH]c3c(F)cc(cc23)O1 [Example 88, (13R)-17-fluoro-13-methyl-8,11,14-trioxa-4,5,19,20-tetraazatetracyclo [13.5.2.1^2,5.0^18,21]tricosa-1(20),2(23),3,15(22),16,18(21)-hexaene]
< 10 nM	C[C@@H]1CCOC[C@@H](C)Oc2cncc(c2)-c2n[nH]c3ccc(cc23)O1 [Example 23, (8R,13R)-8,13-dimethyl-7,10,14-trioxa-4,19,20-triazatetracyclo[13.5.2.1^2,6.0^18,21]tricosa-1(20),2(23),3,5,15(22),16,18(21)-heptaene]
< 10 nM	C[C@H]1CCCOCCn2ncc(n2)-c2n[nH]c3ccc(cc23)O1 [Example 122, (12S)-12-methyl-8,13-dioxa-4,5,18,19,22-pentaazatetracyclo[12.5.2.1^2,5.0^17,20]docosa-1(19),2(22),3,14(21),15,17(20)-hexaene]
< 10 nM	C[C@H]1COCCOCCOc2ccc3[nH]nc(c3c2)-c2cnn1c2 [Example 64, (6S)-6-methyl-8,11,14-trioxa-4,5,19,20-tetraazatetra cyclo[13.5.2.1^2,5.0^18,21]tricosa-1(20),2(23),3,15(22),16,18(21)-hexaene]
< 10 nM	O=C1COc2nccc(n2)-c2n[nH]c3ccc(cc23)OCCCN1 [Example 196, 7,14-dioxa-5,10,19,20,23-pentaazatetracyclo[13.5.2.1^2,6.0^18,21]tricosa-1(20),2(23),3,5,15(22),16,18(21)-heptaen-9-one]
< 10 nM	C[C@@H]1CCCOC[C@@H](C)n2cc(cn2)-c2n[nH]c3ccc(cc23)O1 [Example 128, (6R,12R)-6,12-dimethyl-8,13-dioxa-4,5,18,19-tetraazatetracyclo[12.5.2.1^2,5.0^17,20]docosa-1(19),2(22),3,14(21),15,17(20)-hexaene]
< 10 nM	O=C1COc2cc(cc(N3CCCCC3)c2)-c2n[nH]c3ccc(cc23)OCCCN1 [Example 204, 4-(piperidin-1-yl)-7,14-dioxa-10,19,20-triazatetracyclo [13.5.2.1^2,6.0^18,21]tricosa-1(20),2(23),3,5,15,17,21-heptaen-9-one]
< 10 nM	[2H]C1([2H])OCCO[C@@H](C)COc2ccc3[nH]nc(c3c2)-c2cnn(c2)C1([2H])[2H] [Example 110, (12S)-12-methyl(6,6,7,7-2H4)-8,11,14-trioxa-4,5,19,20-tetraazatetracyclo [13.5.2.1^2,5.0^18,21]tricosa-1(20),2(23),3,15(22),16,18(21)-hexaene]
< 10 nM	CC1CCNCCOc2cncc(c2)-c2n[nH]c3ccc(cc23)O1 (stereo not drawn) [Example 159, 13-methyl-7,14-dioxa-4,10,19,20-tetraazatetracyclo[13.5.2.1^2,6.0^18,21]tricosa-1(20),2,4,6(23),15,17,21-heptaene]
< 100 nM	C[C@H]1CCOC[C@H](C)Oc2nccc(n2)-c2n[nH]c3ccc(cc23)O1 [Example 46, (8S,13S)-8,13-dimethyl-7,10,14-trioxa-5,19,20,23-tetraazatetracyclo [13.5.2.1^2,6.0^18,21]tricosa-1(20),2(23),3,5,15(22),16,18(21)-heptaene]
< 100 nM	C[C@@H]1CNCCO[C@H](C)c2cncc(c2)-c2n[nH]c3ccc(cc23)O1 (single isomer, unassigned) [Example 235, (7R or 7S,13R)-7,13-dimethyl-8,14-dioxa-4,11,19,20-tetraazatetracyclo[13.5.2.1^2,6.0^18,21]tricosa-1(20),2(23),3,5,15(22),16,18(21)-heptaene]
< 10 nM	C[C@@H]1CCOCC[C@@H](C)n2ncc(n2)-c2n[nH]c3ccc(cc23)O1 [Example 94, (6R,12R)-6,12-dimethyl-9,13-dioxa-4,5,18,19,22-pentaazatetracyclo[12.5.2.1^2,5.0^17,20]docosa-1(19),2(22),3,14(21),15,17(20)-hexaene]
< 100 nM	C[C@@H]1Cn2cc(cn2)-c2n[nH]c3ccc(cc23)OCCOCCO1 [Example 77, (7R)-7-methyl-8,11,14-trioxa-4,5,19,20-tetraazatetracyclo[13.5.2.1^2,5.0^18,21] tricosa-1(20),2(23),3,15(22),16,18(21)-hexaene]
